Results published in US7507792B2, “MDA-7 proteins and methods of use thereof” (The Trustees of Columbia University In The City of New York, priority 1993, dated 2009).
“Also recorded” adds a separate entry of the source.

Experiments:
Assay type in all cases: cell-based, human
[1] = test system: H0-1 cells; experiment: Northern blotting of H0-1 RNA probed with mda cDNA clones; conditions: 24 hours
Description: Ten micrograms of total cellular RNA were separated on a 1% agarose gel, transferred to nylon membranes and then hybridized individually with radioactive probes prepared using appropriate inserts from the cDNA clones.
The mass excision of the library was performed using ExAssist helper phage as described above. The SOLR strain of Escherichia coli and cDNA phagemids were mixed at 37° C. for 15 min and plated onto LB plates containing ampicillin and IPTG/X-gal. White colonies were chosen at random, isolated and grown in LB medium. Plasmid minireps and restriction enzyme digestions were performed to confirm the presence of inserts. The inserts were isolated and used as robes for Northern blotting analysis (5,25). […] Radiolabeled probes were generated by random oligonucleotide priming (25). Prehybridization, hybridization, posthybridization washes, and autoradiography were performed as described (5,18,25).

[2] = test system: HL-525 cells; experiment: Cell growth (cell counts); conditions: 6 d, 3 nM TPA, 1 μM RA, 400 nM Vit D3
Description: Cell counts were determined by hemocytometer chamber counting. Immunofluorescence tests for reactivity with the OKM1 antibody (Ortho Pharmaceutical Corp., Raritan, N.J.) were performed as previously described (Murao et al., 1983).

[3] = test system: mda-6 (WAF1/CIP1/SDI1); experiment: Induction of mda-6 (WAF1/CIP1/SDI1) expression in HL-60 cells (Northern blotting, RT-PCR); conditions: TPA 3 nM, Vit D3 400 nM, RA 1 μM, DMSO 1%
Description: HL-60 cells were originally provided by Dr. R. C. Gallo (National Cancer Institute, Bethesda, Md.) (Collins et al., 1978; Huberman & Callaham, 1979). HL-60 cells designated HL-525 were derived by cloning HL-60 cells after subculturing 102 times in the presence of increasing concentrations (up to 3 μM) of TPA at 5- to 8-day intervals (Homma et al., 1986; Mitchell et al., 1986). […] Prior to the experiments described in this study, the HL-525 cells were subcultured more than 20 times in the absence of TPA. Cells were grown in 100-mm tissue culture dishes in RPMI 1640 medium supplemented with 20% fetal bovine serum, penicillin (100 units/ml) and streptomycin (100 μg/ml) (Grand Island Biological Co., NY) at 37° C. in an atmosphere of 5% CO2 in air in a humidified incubator. The 1,25-(OH)2D3(Vit D3) and TPA were dissolved in a final concentration of 0.01% DMSO, and all-trans retinoic acid (RA) was dissolved in 0.1% DMSO in culture medium. […]
RNA was purified by centrifugation through a CsC1 cushion as described by Chirgwin et al. (1979). […] Following hybridization, the filters were washed and exposed for autoradiography (Reddy et al., 1991; Su et al., 1991; Jiang et al., 1992). mda-6 and GAPDH gene expression were also determined by reverse transcription-polymerase chain reaction (RT-PCR) as described (Adollahi et al. 1991; Lin et al., 1994). […]

Structure (SMILES): C=C(C)[C@@]12O[C@@]3(c4ccccc4)O[C@@H]1[C@@H]1[C@@H]4O[C@]4(CO)[C@@H](O)[C@]4(O)C(=O)C(C)=C[C@H]4[C@@]1(O3)[C@H](C)[C@H]2OC(=O)/C=C/C=C/c1ccccc1 [MEZ, mezerein]
- mda-3 expression [1]: induced; also recorded: Increased expression

Structure (SMILES): CC1=C(/C=C/C(C)=C/C=C/C(C)=C/C(=O)O)C(C)(C)CCC1 [RA, trans-retinoic acid]
- reduction in growth (cell numbers) [2]: 35%

Structure (SMILES): CCCCCCCCCCCCCC(=O)O[C@@H]1[C@@H](C)[C@@]2(O)[C@@H](C=C(CO)C[C@]3(O)C(=O)C(C)=C[C@@H]23)[C@@H]2C(C)(C)[C@]12OC(C)=O [TPA, 12-O-tetradecanoyl-phorbol-13-acetate]
- time of treatment at which mda-6 expression is induced [3]: ≤ 2 h
